Laboratory results taken from ChEMBL document CHEMBL5316312, “Novel Diarylthioether Compounds as Agents for the Treatment of Chagas Disease” (J Med Chem, 2023).
≈ marks a conversion by molar mass, not a printed value. Calls of active or inactive are those of the source. No cut-off for these calls is given here.

What was measured:
[1] = tested on: Trypanosoma cruzi; experiment: Antitrypanosomal activity against Trypanosoma cruzi Tulahuen trypomastigotes assessed as reduction in parasite growth incubated for 4 hrs by cell counter analysis; format: functional, organism-based
[2] = Cytotoxicity against rat H9c2 cells assessed as reduction in cell viability measured for 72 hrs; format: toxicity, cell-based
[3] = target: Voltage-gated inwardly rectifying potassium channel KCNH2 (Homo sapiens, UniProt Q12809); experiment: Inhibition of hERG cardiac ion channel; format: toxicity
Voltage-gated inwardly rectifying potassium channel KCNH2, sequence (Q12809 whole entry): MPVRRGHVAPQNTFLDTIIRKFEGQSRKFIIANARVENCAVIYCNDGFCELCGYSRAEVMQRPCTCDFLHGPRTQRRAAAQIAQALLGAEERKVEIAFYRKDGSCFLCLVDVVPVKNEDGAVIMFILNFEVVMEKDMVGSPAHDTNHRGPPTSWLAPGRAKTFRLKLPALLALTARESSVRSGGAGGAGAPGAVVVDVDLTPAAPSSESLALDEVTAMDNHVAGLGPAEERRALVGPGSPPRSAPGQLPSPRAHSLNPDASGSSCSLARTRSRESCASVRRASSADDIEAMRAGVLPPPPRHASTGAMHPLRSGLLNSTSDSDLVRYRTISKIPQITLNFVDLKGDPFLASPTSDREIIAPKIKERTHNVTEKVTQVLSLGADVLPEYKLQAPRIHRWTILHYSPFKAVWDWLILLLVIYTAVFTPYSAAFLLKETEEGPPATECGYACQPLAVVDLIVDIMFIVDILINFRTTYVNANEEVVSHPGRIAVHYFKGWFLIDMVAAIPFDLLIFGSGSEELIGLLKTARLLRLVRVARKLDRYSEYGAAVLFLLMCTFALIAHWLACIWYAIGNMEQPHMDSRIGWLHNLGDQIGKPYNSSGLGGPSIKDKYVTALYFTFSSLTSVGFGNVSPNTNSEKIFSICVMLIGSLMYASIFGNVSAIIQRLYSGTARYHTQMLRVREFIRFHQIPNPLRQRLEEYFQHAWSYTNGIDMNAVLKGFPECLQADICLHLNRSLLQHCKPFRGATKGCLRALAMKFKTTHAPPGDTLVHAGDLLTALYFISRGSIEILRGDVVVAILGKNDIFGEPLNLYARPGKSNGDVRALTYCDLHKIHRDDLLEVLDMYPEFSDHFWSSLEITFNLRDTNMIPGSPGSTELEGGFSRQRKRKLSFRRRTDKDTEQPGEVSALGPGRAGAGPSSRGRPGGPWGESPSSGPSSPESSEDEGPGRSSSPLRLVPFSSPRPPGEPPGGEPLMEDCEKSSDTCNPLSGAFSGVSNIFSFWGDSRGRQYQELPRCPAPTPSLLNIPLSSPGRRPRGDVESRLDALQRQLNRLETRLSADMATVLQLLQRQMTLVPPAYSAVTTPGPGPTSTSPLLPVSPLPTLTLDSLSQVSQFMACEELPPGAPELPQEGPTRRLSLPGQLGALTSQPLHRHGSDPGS

[4] = Equilibrium solubility of the compound in FaSSIF at pH 6.5; format: physicochemical
[5] = target: Sterol 14-alpha demethylase (Trypanosoma cruzi (strain CL Brener), UniProt Q7Z1V1); experiment: Inhibition of Trypanosoma cruzi CYP51
Sterol 14-alpha demethylase, sequence (Q7Z1V1 whole entry): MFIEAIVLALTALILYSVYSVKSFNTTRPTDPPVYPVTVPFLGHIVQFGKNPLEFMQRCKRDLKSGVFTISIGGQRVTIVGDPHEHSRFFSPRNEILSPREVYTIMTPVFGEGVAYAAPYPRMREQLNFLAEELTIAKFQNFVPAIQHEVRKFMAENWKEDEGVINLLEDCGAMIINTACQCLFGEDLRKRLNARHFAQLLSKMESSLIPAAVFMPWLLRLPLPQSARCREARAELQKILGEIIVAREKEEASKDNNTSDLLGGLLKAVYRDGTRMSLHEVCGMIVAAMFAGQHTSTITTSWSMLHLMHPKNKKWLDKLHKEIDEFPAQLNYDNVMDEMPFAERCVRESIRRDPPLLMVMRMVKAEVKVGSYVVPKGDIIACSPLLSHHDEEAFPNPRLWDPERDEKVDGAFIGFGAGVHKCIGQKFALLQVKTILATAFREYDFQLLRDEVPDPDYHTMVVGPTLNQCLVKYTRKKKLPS

[6] = Microsomal stability in human liver microsome measured assessed as half life upto 30 mins by HPLC-MS/MS analysis; format: ADME; conditions: liver microsomes
[7] = Cytotoxicity against mouse NIH3T3 cells assessed as reduction in cell viability; format: toxicity, cell-based
[8] = tested on: Trypanosoma cruzi; experiment: Antitrypanosomal activity against Trypanosoma cruzi Tulahuen amastigotes infected in monkey LLC-MK2 cells assessed reduction in amastigotes per 100 cells by measuring rate of kill time by counting analysis; format: functional
[9] = tested on: HepG2; experiment: Cytotoxicity against human HepG2 cells assessed as reduction in cell viability; format: functional, cell-based
[10] = tested on: Trypanosoma cruzi; experiment: Antitrypanosomal activity against Trypanosoma cruzi Tulahuen amastigotes infected in monkey LLC-MK2 cells assessed as reduction in amastigotes per 100 cells by cell counting analysis; format: functional, organism-based
[11] = Microsomal stability in human liver microsome measured assessed as intrinsic clearance upto 30 mins by HPLC-MS/MS analysis; format: ADME; conditions: microsomes, 0.5 h
[12] = tested on: Trypanosoma cruzi; experiment: Antitrypanosomal activity against Trypanosoma cruzi Tulahuen strain trypomastigotes infected in rat H9c2 cells; format: functional, organism-based
[13] = Cytotoxicity against monkey LLC-MK2 cells assessed as reduction in cell viability; format: toxicity, cell-based; conditions: rhesus monkey (Macaca mulatta)
[14] = Microsomal stability in CD-1 mouse liver microsome measured assessed as intrinsic clearance upto 30 mins by HPLC-MS/MS analysis; format: ADME; conditions: microsomes, 0.5 h
[15] = Microsomal stability in CD-1 mouse liver microsome measured assessed as half life upto 30 mins by HPLC-MS/MS analysis; format: ADME; conditions: liver microsomes
[16] = Tmax in BALB/c mouse at 50 mg/kg, po measured at 15 to 1440 mins by LC-MS/MS analysis; format: ADME, organism-based; conditions: in vivo, time 15-1440 min
[17] = Toxicity in BALB/c mouse assessed as reduction in body weight loss at 50 mg/kg, po bid; format: organism-based; parameters: scale not given: the % may be the effect or the level left; conditions: in vivo
[18] = AUC in BALB/c mouse at 50 mg/kg, po measured at 15 to 1440 mins by LC-MS/MS analysis; format: ADME, organism-based; parameters: time upper 1440 min, dose 50 mg/kg, time lower 15 min, route po; conditions: in vivo
[19] = AUC (0 to t) in BALB/c mouse at 50 mg/kg, po measured at 15 to 1440 mins by LC-MS/MS analysis; format: ADME, organism-based; parameters: dose 50 mg/kg, time upper 1440 min, time lower 15 min, route po; conditions: in vivo
[20] = tested on: Trypanosoma cruzi; experiment: In vivo antitrypanosomal activity against Trypanosoma cruzi infected in BALB/c mouse model assessed as reduction in parasitemia at 30 mg/kg, po preincubated for 4 days post infection followed by compound treatment and measured after 5 to 10 days; format: functional; parameters: scale not given: the % may be the effect or the level left; conditions: time 5-10 day
[21] = Cmax in BALB/c mouse at 50 mg/kg, po measured at 15 to 1440 mins by LC-MS/MS analysis; format: ADME, organism-based; parameters: time lower 15 min, dose 50 mg/kg, time upper 1440 min, route po; conditions: in vivo

Structure (SMILES)	IC50 [1]	IC50 at 72 h [2]	other results
COc1cccc(CO)c1Sc1ccc(N2CCCC2=O)cc1C(F)(F)F	20 µM	> 50.1 µM	–
O=C1CCCN1c1ccc(Sc2ccccc2O)c(C(F)(F)F)c1	2 µM	15.8 µM	–
COC(=O)c1cc(N2CCCC2=O)ccc1Sc1ccccc1CO	31.6 µM	> 50.1 µM	–
O=C1CCCN1c1ccc(Sc2cccc(Cl)c2CO)c(C(F)(F)F)c1	0.316 µM	> 50.1 µM	–
N#Cc1cc(N2CCCC2=O)ccc1Sc1ccccc1CO	–	0.447 µM	Activity [1]: inactive; IC50 [3]: > 50.1 µM; solubility thermodynamic [4]: 56 µg/mL (≈ 173 µM); IC50 [5]: > 10 µM; half-life [6]: 15 min; IC50 [7]: > 50.1 µM; Time [8]: >24 h; IC50 [9]: > 100 µM; IC50 [10]: 0.251 µM; CLH [11]: 4.62 mL/min/g; IC50 [12]: 0.24 µM; IC50 [13]: 0.447 µM; CLH [14]: 1.36 mL/min/g; half-life [15]: 54 min
O=C1CCCN1c1ccc(Sc2cc(F)ccc2CO)c(C(F)(F)F)c1	0.126 µM	> 50.1 µM	–
COc1cccc(Sc2ccc(N3CCCC3=O)cc2C(F)(F)F)c1CO	25.1 µM	> 50.1 µM	–
O=C1CCCN1c1ccc(Sc2ccccc2CO)c(Cl)c1	0.2 µM	> 50.1 µM	–
CN(C)C(=O)c1cc(N2CCCC2=O)ccc1Sc1ccccc1CO	50.1 µM	> 50.1 µM	–
COc1ccc(CO)c(Sc2ccc(N3CCCC3=O)cc2C(F)(F)F)c1	15.8 µM	> 50.1 µM	–
N#Cc1cc(N2CCCC2=O)ccc1Sc1ccccc1C(=O)O	0.794 µM	> 50.1 µM	–
O=C1CCCN1c1ccc(Sc2ccccc2CO)c(OC(F)(F)F)c1	2.51 µM	> 50.1 µM	–
O=C1CCCN1c1ccc(Sc2ccccc2CO)c(F)c1	5.01 µM	> 50.1 µM	–
O=C1CCCN1c1ccc(Sc2cc(Cl)ccc2CO)c(C(F)(F)F)c1	6.31 µM	39.8 µM	–
O=C(Cn1ccnc1[N+](=O)[O-])NCc1ccccc1 [BENZNIDAZOLE]	1.26 µM	31.6 µM	–
O=C1CCCN1c1ccc(Sc2ccccc2CO)c(C(F)(F)F)c1	0.0316 µM	> 50.1 µM	Tmax [16]: 30 min; Activity [17]: 16%; AUC [18]: 530 ng·h/mL; half-life [6]: 2.11 min; AUC(0-t) [19]: 485 ng·h/mL; CLH [11]: 11.51 mL/min/g; Activity [20]: 70%; CLH [14]: 31.49 mL/min/g; Cmax [21]: 301 ng/mL; half-life [15]: 4.78 min
Cc1cc(N2CCCC2=O)ccc1Sc1ccccc1CO	6.31 µM	> 50.1 µM	–
N#Cc1cc(N2CCCC2=O)ccc1Oc1ccccc1CO	2.51 µM	> 50.1 µM	–

Structure (SMILES)	IC50 [1]	IC50 at 72 h [2]	other results
COCc1ccccc1Sc1ccc(N2CCCC2=O)cc1C#N	6.31 µM	31.6 µM	–
O=C1CCCN1c1ccc(Sc2ccccc2CO)cc1C(F)(F)F	7.94 µM	> 50.1 µM	–
O=C1CCCN1c1ccc(Sc2ccc(F)cc2CO)c(C(F)(F)F)c1	–	> 50.1 µM	–
COc1ccc(Sc2ccc(N3CCCC3=O)cc2C(F)(F)F)c(CO)c1	1 µM	> 50.1 µM	–
O=C1CCCN1c1ccc(Sc2ncccc2CO)c(C(F)(F)F)c1	20 µM	> 50.1 µM	–
O=C1CCCN1c1ccc(Sc2cccc(F)c2CO)c(C(F)(F)F)c1	0.02 µM	> 50.1 µM	–
O=C1CCCN1c1ccc(Sc2ccccc2CO)cc1	> 50.1 µM	> 50.1 µM	–
O=C1CCCN1c1ccc(Sc2c(Cl)cccc2CO)c(C(F)(F)F)c1	1.26 µM	> 50.1 µM	–
O=C(O)c1cc(N2CCCC2=O)ccc1Sc1ccccc1CO	> 50.1 µM	> 50.1 µM	–
N#Cc1cc(N2CCCC2=O)ccc1Sc1cccc(CO)c1	31.6 µM	> 50.1 µM	–
CCc1ccccc1Sc1ccc(N2CCCC2=O)cc1C(F)(F)F	20 µM	15.8 µM	–
Cc1ccc(CO)c(Sc2ccc(N3CCCC3=O)cc2C(F)(F)F)c1	15.8 µM	> 50.1 µM	–
O=C1CCCN1c1ccc(Sc2ccc(Cl)cc2CO)c(C(F)(F)F)c1	0.158 µM	31.6 µM	–
Cc1ccc(Sc2ccc(N3CCCC3=O)cc2C(F)(F)F)c(CO)c1	6.31 µM	> 50.1 µM	–
O=C1CCCN1c1ccc(Sc2ccccc2CO)nc1	12.6 µM	> 50.1 µM	–
Cc1cccc(Sc2ccc(N3CCCC3=O)cc2C(F)(F)F)c1CO	0.316 µM	> 50.1 µM	–
O=C1CCCN1c1ccc(S(=O)(=O)c2ccccc2CO)c(C(F)(F)F)c1	0.251 µM	> 50.1 µM	Tmax [16]: 30 min; half-life [6]: 3.32 min; AUC(0-t) [19]: 208 ng·h/mL; CLH [11]: 12.5 mL/min/g; CLH [14]: 20 mL/min/g; Cmax [21]: 175 ng/mL; half-life [15]: 4.39 min
Cc1cccc(CO)c1Sc1ccc(N2CCCC2=O)cc1C(F)(F)F	0.794 µM	> 50.1 µM	–
